Source: patent US20230228760A1, “INTRACELLULAR KINASE ASSOCIATED WITH RESISTANCE AGAINST T-CELL MEDIATED CYTOTOXICITY, AND USES THEREOF” (iOmx Therapeutics AG, priority 2020, published 2023)

B1: TRAIL: recombinant human TNF-related apoptosis-inducing ligand (protein, UniProt P50591 1-281, looked up)
Tumor necrosis factor ligand …: MAMMEVQGGPSLGQTCVLIVIFTVLLQSLCVAVTYVYFTNELKQMQDKYSKSGIACFLKEDDSYWDPNDEESMNSPCWQVKWQLRQLVRKMILRTSEETISTVQEKQQNISPLVRERGPQRVAAHITGTRGRSNTLSSPNSKNEKALGRKINSWESSRSGHSFLSNLHLRNGELVIHEKGFYYIYSQTYFRFQEEIKENTKNDKQMVQYIYKYTSYPDPILLMKSARNSCWSKDAEYGLYSIYQGGIFELKENDRIFVSVTNEHLIDMDHEASFFGAFLVG
B2: FasL (protein)
chain: PSPPPEKKELRKVAHLTGKSNSRSMPLEWEDTYGIVLLSGVKYKKGGLVINETGLYFVYSKVYFRGQSCNNLPLSHKVYMRNSKYPQDLVMMEGKMMSYCTTGQMWARSSYLGAVFNLTSADHLYVNVSELSLVNFEESQTFFGLYKL

Columns and labels:
KMM-1-luc cells [1] = experiment: luciferase-based cytotoxicity assay of siRNA-transfected tumour cells co-cultured with MILs; format: cell-based, human; conditions: for T cell mediated cytotoxicity: co-culture with MILs, 10:1 E:T ratio; for viability impact of siRNA per se: viability setting, culture medium instead of T cells
Experimental: (§1) Gene knockdown in tumor cells was induced using reverse siRNA transfection with Lipofectamine RNAiMAX (Thermo Scientific). Briefly, 200 μL of 250 nM siRNA solution was added to each well of a 6-well plate. 4 μl of RNAiMAX transfection reagent was diluted in 196 μL of RPMI (Sigma-Aldrich) and incubated for 10 min at room temperature (RT). 400 μL of additional RPMI was added and 600 μL of RNAiMAX mix was given to the siRNA coated wells and incubated for 30 min at RT. 3.5×10^5 KMM-1 (WT or luc) cells were resuspended in 1.2 mL of antibiotic-free RPMI culture medium supplemented with 10% FCS, seeded in the siRNA-RNAiMAX containing wells and incubated for 48 h at 37° C., 5% CO2. Final siRNA concentration was 25 nM in all cases.
(§2) KMM-1-luc cells were reverse transfected with the desired siRNA sequences in white 96-well-plate (Perkin Elmer) and incubated for 48 h at 37° C., 5% CO2. At the same day of transfection MILs were thawn and treated with benzonase (too IU/mL) (Merck). Cell density was adjusted to 0.6×10^6 cells/mL in CLM supplemented with 3000 IU/mL rhuIL-2 (Novartis) for 48 h. IL-2 was depleted 24 h before the co-culture. Flu TC were thawn 6 h before co-culture. For the cytotoxicity setting, MILs, flu TC, the supernatant of activated MILs or rHuFasL were added to transfected tumor cells at desired E:T ratio/concentration, and incubated for 20 h at 37° C., 5% CO2. For the viability setting, only CLM was added to the tumor cells. After co-culture, supernatant was removed, remaining tumor cells were lysed using 40 μL/well of cell lysis buffer for 10 min. After tumor cell lysis, 60 μL/well of luciferase assay buffer was added and luciferase intensity was measured by using the Spark 20M plate reader (Tecan) with a counting time of 100 msec. Luciferase activities (relative luminescence units=RLUs) were either represented as raw luciferase values or as normalized data to scramble or unstimulated controls.

CAMK1D = CAMK1D protein knockdown by western blot; format: cell-based, human; conditions: KMM-1 cells, 48h after transfection
Experimental: as §1
30 μg of protein lysates were denaturated in 4×NuPAGE LDS Sample Buffer (Thermo Scientific) containing 100% ß-mercaptoethanol (PAN) at 70° C. for 10 min. Samples were spun down and separated on NuPAGE 4-12% Bis-Tris Gels (Thermo Scientific) along with PageRuler Prestained Protein Ladder (Thermo Scientific) and run at 115-150 V for 90 min.
Proteins were transferred from the gel to a PVDF membrane (Millipore) using a semi-dry western blot method. The PVDF blotting membrane (Merck Millipore) was activated in 100% methanol (Merck Millipore) for 1 min and afterwards placed in Transfer Buffer (Thermo Science) until use. Blots were assembled from anode to cathode into the Pierce Power Blot cassette (Thermo Scientific) and run at 24 V for 10 min. Membranes were washed in ix TBS and then placed in blocking solution (5% BSA/0.05% TBST) for 2 h. […] The blots were incubated with the ECL Detection Reagent (Reagent A and Reagent B, 1:1, GE Healthcare) for 4 min and the chemiluminescence was detected with myECL Imager (Thermo Scientific).

CAMK1D mRNA = CAMK1D mRNA knockdown by qPCR; format: cell-based, human; conditions: KMM-1 cells, 48h after transfection, normalized to β-actin
Experimental: Gene expression was measured using end-point PCR. Briefly, total RNA was isolated from cell pellets using the RNeasy Mini kit (Qiagen) according to the manufacturer's guidelines. 1 μg of RNA was reverse transcribed to complementary DNA (cDNA) using the QuantiTect reverse transcription kit (Qiagen) according to the manufacturer's protocol. Synthesized cDNA was amplified using conventional PCR. PCR samples were set up in a 25 μL volume using 2×MyTaq HS Red Mix (Bioline), 500 nM of gene-specific primer mix and 100 ng of template cDNA. The PCR program was set as the following: 95° C. for 3 min, 35 cycles of 3 repetitive steps of denaturation (95° C. for 30 s), annealing (60° C. for 30 s) and extension (72° C. for 30 s), and a final step at 72° C. for 5 min. PCR products were run on a 2% agarose gel in TAE buffer using a gel electrophoresis system (Thermo Scientific) and DNA bands were visualized using UV light of myECL Imager (Thermo Scientific). Knockdown efficiency of siRNA sequences was measured by quantitative PCR (qPCR). For qPCR, 10 ng of template cDNA, 2× QuantiFast SYBR Green PCR mix (Qiagen) and 300 nM of gene-specific primer mix was used per 20 μL reaction and each sample was prepared in triplicates. Reactions were run using the QuantStudio 3 (Applied Biosystems). Expression of several genes was normalized to the expression of β-actin gene and the analysis was performed using comparative Ct method.
as §1, with “Final siRNA concentration was 25 nM in all cases.” left out

KMM-1-luc cells [2] = experiment: blocking assay: CaM inhibitor (W7) with or without rHuFasL, luciferase-based cytotoxicity assay; format: cell-based, human
Experimental: as §2
For the experiments using the anti-Calmodulin (W7) (Tocris) inhibitor, 1×10^4 KMM-1-luc (scr or CAMK1D-transfected) cells/well were seeded in white 96 well plates (Perkin Elmer) in 100 μL of RPMI 10% FCS. The small molecule inhibitor was added at the indicated concentrations for 1 h at 37° C., before 100 ng/mL rHuFasL or medium control was added. DMSO treatment served as negative control. After 20 h stimulation, luciferase-based cytotoxicity assay was performed. For CAMK1D inhibition, 1×10^4 KMM-1-luc or 1×10^4 Mel270 cells/well were incubated overnight in a 96 well plate. OMX2001 was added at the indicated concentrations 1 h before rHuFasL stimulation (100 ng/mL) or medium control. DMSO treatment served as negative control. After 20h stimulation, luciferase-based cytotoxicity assay was performed.

KMM-1-luc cells [3] = experiment: blocking assay: CAMK1D inhibitor plus rHuFasL, luciferase-based cytotoxicity assay; format: cell-based, human; conditions: KMM-1 multiple myeloma cells; rHuFasL 100 ng/mL, 20 h
Experimental: as §2, with “controls. For the experiments using the anti-Calmodulin (W7) (Tocris) inhibitor, 1×10^4 KMM-1-luc (scr or CAMK1D-transfected) cells/well were seeded in white 96 well plates (Perkin Elmer) in 100 μL of RPMI 10% FCS. […]” for “controls.”

Mel270 cells = experiment: as above; format: cell-based, human; conditions: Mel270 uveal melanoma cells; rHuFasL 100 ng/mL, 20 h
Experimental: as §2, with “controls. For the experiments using the anti-Calmodulin (W7) (Tocris) inhibitor, 1×10^4 KMM-1-luc (scr or CAMK1D-transfected) cells/well were seeded in white 96 well plates (Perkin Elmer) in 100 μL of RPMI 10% FCS. […]” for “controls.”

[4] = target: T1, recombinantly expressed CAMK1D protein kinase (Homo sapiens, UniProt Q8IU85); experiment: radiometric protein kinase assay (33PanQinase Activity Assay) of CAMK1D kinase activity; format: biochemical; conditions: 10 concentrations (1x10-05 M to 3x10-10 M), singlicate; read-out: IC50 of CAMK1D kinase inhibition
T1 construct: purchased ProQinase (Freiburg, Germany)
Experimental: QPP was identified as CAMK1D inhibitor in a radiometric protein kinase assay (PanQinase® Activity Assay) used for measuring the kinase activity of a recombinantly expressed CAMK1D protein kinase. All assays were performed with a BeckmanCoulter/SAGIAN™ Core System.

KMM-1-luc cells [5] = experiment: treatment of scr or siCAMK1D transfected cells with recombinant FasL, TRAIL or TNF, luciferase activity; format: cell-based, human; conditions: siCAMK1D transfected KMM-1, 20h treatment
Experimental: as §2

Row | Molecule | T cell mediated cytotoxicity (KMM-1-luc cells [1]) | viability impact of siRNA per se (KMM-1-luc cells [1]) | CAMK1D expression at protein level (CAMK1D) | CAMK1D expression at mRNA level (CAMK1D mRNA) | also measured
1 | s2: siRNA targeting hCAMK1D, CAAAUCACCUGUACUUGGU, Dharmacon D-004946-02, SEQ ID NO. 4 (listed as RNA, chemistry not given here) | increased T cell mediated cytotoxicity | no viability impact | significantly reduced CAMK1D expression | significantly reduced CAMK1D expression | –
2 | s3: siRNA targeting hCAMK1D, CCGAAAAUCUCUUGUACUA, Dharmacon D-004946-03, SEQ ID NO. 5 (listed as RNA, chemistry not given here) | increased T cell mediated cytotoxicity | no viability impact | significantly reduced CAMK1D expression | significantly reduced CAMK1D expression | –
3 | s1: siRNA targeting hCAMK1D, UGAAGUGUAUCCCUAAGAA, Dharmacon D-004946-01, SEQ ID NO. 3 (chemistry not given here) | increased T cell mediated cytotoxicity | no viability impact | significantly reduced CAMK1D expression | significantly reduced CAMK1D expression | –
4 | Cl.NCCCCCCNS(=O)(=O)c1cccc2c(Cl)cccc12 [W-7 hydrochloride] | – | – | – | – | effect on FasL induced tumour cell apoptosis (KMM-1-luc cells [2]; 5 μM, with rHuFasL): sharply recapitulated the effect of CAMK1D silencing; toxicity to KMM-1 cells (tumour cell survival by luciferase intensity) (KMM-1-luc cells [2]; 5 μM, without rHuFasL): not toxic; further increase of FasL-mediated tumour cell killing (KMM-1-luc cells [2]; combination of W-7 hydrochloride with CAMK1D silencing, after FasL exposure): 3 fold
5 | Cc1cc(Nc2nc(-c3ccccc3)nc3ccccc23)n[nH]1 [QPP, (5-Methyl-1H-pyrazol-3-yl)-(2-phenylquinazolin-4-yl)amine] | – | – | – | – | tumour cell viability (luciferase intensity) after inhibitor plus recombinant FasL (KMM-1-luc cells [3]): induced a significant tumour cell viability; tumour cell viability (luciferase intensity) after inhibitor plus recombinant FasL (Mel270 cells): induced a significant tumour cell viability; IC50 [4]: 2940 nM
6 | B1 | – | – | – | – | reduction of CAMK1D-deficient tumour cells after exposure (KMM-1-luc cells [5]): to a much lesser degree
7 | B2 | – | – | – | – | reduction of CAMK1D-deficient tumour cells after exposure (KMM-1-luc cells [5]): dramatically reduced
